The text below walks through data of patent US9938290B2, “Tricyclic heterocyclic compounds as phosphoinositide 3-kinase inhibitors” (Karus Therapeutics Limited, priority 2009, dated 2018).

One experiment concerns A549 (Lung Tumour). Put plainly: In vitro inhibition of tumour cell proliferation, A549. The format is cell-based.
The test system of a further experiment is MCF7 (Breast Tumour). Put plainly: In vitro inhibition of tumour cell proliferation, MCF7. The format is cell-based.
The subject of experiment [1] is Rheumatoid Arthritis Synovial Fibroblast (RASF). Nature of the experiment: In vitro inhibition of rheumatoid arthritis synovial fibroblast (RASF) proliferation. The format is cell-based.
For the next experiment, the system named is PC3 (Prostate Tumour). Nature of the experiment: In vitro inhibition of tumour cell proliferation, PC3. It is filed as cell-based.
In experiment [2] the test system is IFNγ production in hPBMCs. Put plainly: Inhibition of IFNγ production from PHA-stimulated hPBMCs. It is filed as cell-based, human. The settings on record: hPBMCs stimulated with PHA. As to the method: (§1) 2) Anti-Inflammatory Activity: Inhibition of the Production of Pro-Inflammatory Cytokines from Stimulated Human Peripheral Blood Mononuclear Cells (hPBMCs)
(§2) Compounds were tested at a concentration of 1 uM for cytokine release inhibition in hPBMCs stimulated with LPS (TNFα), PHA (IFNγ) and anti-CD3 (IL-17A, IL-17F, IL-21, IL-23): […]

Experiment [3] relates to IL-17A production in hPBMCs. Nature of the experiment: Inhibition of IL-17A production from anti-CD3-stimulated hPBMCs. The format is cell-based, human. The following applies: hPBMCs stimulated with anti-CD3. On the procedure: as §1, §2
Experiment [4] deals with IL-17F production in hPBMCs. Put plainly: Inhibition of IL-17F production from anti-CD3-stimulated hPBMCs. The following applies: hPBMCs stimulated with anti-CD3. The format is cell-based, human. On the procedure:
as §1, §2

Experiment [5] concerns IL-21 production in hPBMCs. Put plainly: Inhibition of IL-21 production from anti-CD3-stimulated hPBMCs. The format is cell-based, human. The following applies: hPBMCs stimulated with anti-CD3. As to the method:
as §1, §2

In experiment [6] the test system is IL-23 production in hPBMCs. Put plainly: Inhibition of IL-23 production from anti-CD3-stimulated hPBMCs. The format is cell-based, human. The settings on record: hPBMCs stimulated with anti-CD3. As to the method: as §1, §2
For experiment [7], the system named is TNFα production in hPBMCs. Nature of the experiment: Inhibition of TNFα production from LPS-stimulated hPBMCs. The format is cell-based, human. The settings on record: hPBMCs stimulated with LPS. On the procedure: as §1, §2

The IC50 is the concentration needed to halve the response being measured. The low end stands for inhibition by little substance, the high end for a need for much substance. Take `c1cc(-c2nc(N3CCOCC3)c3oc4ncc(CN5CCOCC5)cc4c3n2)c2cc[nH]c2c1` [K, 2-(1H-Indol-4-yl)-4-morpholin-4-yl-8-morpholin-4-ylmethyl-pyrido[3′,2′:4,5]furo[3,2-d]pyrimidine]: the IC50 in the experiment on A549 (Lung Tumour) was found to be 682 nM; in the experiment with MCF7 (Breast Tumour) it was 352 nM; in [1], 3020 nM; in the experiment on PC3 (Prostate Tumour) it was 3340 nM.

As to “(E)-1-(4-Methyl-piperazin-1-yl)-3-[4-morpholin-4-yl-2-(1H-pyrrolo[2,3-b]pyridin-4-yl)-pyrido[3′,2′:4,5]furo[3,2-d]pyrimidin-8-yl]-propenone”, the “% Inhibition of Proinflammatory Cytokine Production at 1 uM, IFNγ” value in experiment [2] was 67%. The “% Inhibition of Proinflammatory Cytokine Production at 1 uM, IL-17A” value in [3] is 77%. The “% Inhibition of Proinflammatory Cytokine Production at 1 uM, IL-17F” value in experiment [4] turned out to be 74%. Further, the “% Inhibition of Proinflammatory Cytokine Production at 1 uM, IL-21” value in experiment [5] turned out to be 82%. For the same compound, the “% Inhibition of Proinflammatory Cytokine Production at 1 uM, IL-23” value in experiment [6] stood at 93%. In addition, the “% Inhibition of Proinflammatory Cytokine Production at 1 uM, TNFα” value in experiment [7] is given as 74%.
